Experiments:
Assay type in all cases: in vivo
Lindernia procumbens [1] = assay: Herbicidal efficacy on paddy field weeds of pre-emergence stage (Pre), Test Example 1; conditions: 1000 g/ha as active ingredient, examined after 21 days
Protocol: (§1) 75 cm^2 plastic pots were filled with the soil (clay loam). Seeds of Scirpus juncoides, a paddy weed, were planted, and they were covered with 75 cm^3 of soil mixed with seeds of Lindernia procumbens and then filled with water depth of 5 cm. Next day, predetermined effective dosage (1000 g/ha as an active ingredient) of formulations comprising a compound of the present invention as an active ingredient which were prepared following Formulation Examples 1 to 4 was diluted with water and applied dropwise to the surface of the water. Then, they were brought up in a greenhouse and the herbicidal effect was examined after 21 days from the treatment by comparing with the result of an untreated group according to the following criteria. In the table, “-” means that the test was not performed.
(§2) Criteria for herbicidal efficacy (growth inhibiting degree) and phytotoxicity. • 5 . . . 100% herbicidal effect, phytotoxicity. • 4 . . . 90%-99% herbicidal effect, phytotoxicity. • 3 . . . 70%-89% herbicidal effect, phytotoxicity. • 2 . . . 40%-69% herbicidal effect, phytotoxicity. • 1 . . . 1%-39% herbicidal effect, phytotoxicity. • 0 . . . 0% herbicidal effect, phytotoxicity.

Scirpus juncoides [2] = assay: as above; conditions: 1000 g/ha as active ingredient, examined after 21 days
Protocol: as §1, §2

Lindernia procumbens [3] = assay: Herbicidal effect on paddy field weeds of post-emergence stage (Post), Test Example 2; conditions: one-leaf stage, 1000 g/ha as active ingredient, examined after 21 days
From the text: as §2
(§3) 75 cm^2 plastic pots were filled with the soil (clay loam). Seeds of Scirpus juncoides and Echinochloa crus-galli, paddy weeds, were planted, and they were covered with 75 cm^3 of soil mixed with seeds of Lindernia procumbens and then filled with water depth of 5 cm and they were brought up in a greenhouse. When the test plants were at one-leaf stage, predetermined effective dosage (1000 g/ha as an active ingredient) of formulations comprising a compound of the present invention as an active ingredient was applied to the pot water. Then, they were brought up in a greenhouse and the herbicidal efficacy was examined after 21 days from the treatment by comparing with the result of an untreated group according to the criteria of Test Example 1. In the table, “-” means that the test was not performed.

Scirpus juncoides [4] = assay: as above; conditions: one-leaf stage, 1000 g/ha as active ingredient, examined after 21 days
From the text: as §2, §3

SMILES	Lindernia procumbens pre (herbicidal effect) (Lindernia procumbens [1])	Scirpus juncoides pre (herbicidal effect) (Scirpus juncoides [2])	Lindernia procumbens post (herbicidal effect) (Lindernia procumbens [3])	Scirpus juncoides post (herbicidal effect) (Scirpus juncoides [4])
COC(=O)N(c1ccccc1CN1CCC(C)(c2ccccc2F)OC1=O)S(=O)(=O)C(F)(F)F (racemic) [Compound 1-429]	5 (100% herbicidal effect, phytotoxicity)	4 (90%-99% herbicidal effect, phytotoxicity)	5 (100% herbicidal effect, phytotoxicity)	4 (90%-99% herbicidal effect, phytotoxicity)
CC1(c2c(F)cccc2F)CCN(Cc2ccccc2NS(=O)(=O)C(F)(F)F)C(=O)O1 (racemic) [Compound 1-439]	5 (100% herbicidal effect, phytotoxicity)	5 (100% herbicidal effect, phytotoxicity)	5 (100% herbicidal effect, phytotoxicity)	4 (90%-99% herbicidal effect, phytotoxicity)
CCC1(C(C)C)CCN(Cc2ccccc2N(C(=O)OCC(C)(C)C)S(=O)(=O)C(F)(F)F)C(=O)O1 (racemic) [Compound 1-456]	5 (100% herbicidal effect, phytotoxicity)	5 (100% herbicidal effect, phytotoxicity)	5 (100% herbicidal effect, phytotoxicity)	4 (90%-99% herbicidal effect, phytotoxicity)
CC1(Cc2ccccc2F)CCN(Cc2ccccc2NS(=O)(=O)C(F)(F)F)C(=O)O1 (racemic) [Compound 1-461]	5 (100% herbicidal effect, phytotoxicity)	5 (100% herbicidal effect, phytotoxicity)	5 (100% herbicidal effect, phytotoxicity)	4 (90%-99% herbicidal effect, phytotoxicity)
CCCOC(=O)N(c1ccccc1CN1CCC(CC)(C(F)(F)F)OC1=O)S(=O)(=O)C(F)(F)F (centres unmarked) [Compound 1-94]	5 (100% herbicidal effect, phytotoxicity)	5 (100% herbicidal effect, phytotoxicity)	5 (100% herbicidal effect, phytotoxicity)	4 (90%-99% herbicidal effect, phytotoxicity)
CCCCOC(=O)N(c1ccccc1CN1CCC(CC)(C(F)(F)F)OC1=O)S(=O)(=O)C(F)(F)F (centres unmarked) [Compound 1-95]	5 (100% herbicidal effect, phytotoxicity)	5 (100% herbicidal effect, phytotoxicity)	5 (100% herbicidal effect, phytotoxicity)	4 (90%-99% herbicidal effect, phytotoxicity)
CCC1(CC)CCN(Cc2ccccc2N(C(=O)OCC(C)(C)C)S(=O)(=O)C(F)(F)F)C(=O)O1 [Compound 1-108]	4 (90%-99% herbicidal effect, phytotoxicity)	4 (90%-99% herbicidal effect, phytotoxicity)	4 (90%-99% herbicidal effect, phytotoxicity)	4 (90%-99% herbicidal effect, phytotoxicity)
CCC1(CC)CCN(Cc2ccccc2N(C(=O)OCC(C)C)S(=O)(=O)C(F)(F)F)C(=S)O1 [Compound 1-119]	4 (90%-99% herbicidal effect, phytotoxicity)	4 (90%-99% herbicidal effect, phytotoxicity)	4 (90%-99% herbicidal effect, phytotoxicity)	4 (90%-99% herbicidal effect, phytotoxicity)
CCCCC(CC)COC(=O)N(c1ccccc1CN1CCC2(CCCC2)OC1=O)S(=O)(=O)C(F)(F)F (centres unmarked) [Compound 1-144]	4 (90%-99% herbicidal effect, phytotoxicity)	4 (90%-99% herbicidal effect, phytotoxicity)	4 (90%-99% herbicidal effect, phytotoxicity)	4 (90%-99% herbicidal effect, phytotoxicity)
CC(C)(C)COC(=O)N(c1ccccc1CN1CCC(C2CC2)(C2CC2)OC1=O)S(=O)(=O)C(F)(F)F [Compound 1-155]	4 (90%-99% herbicidal effect, phytotoxicity)	4 (90%-99% herbicidal effect, phytotoxicity)	4 (90%-99% herbicidal effect, phytotoxicity)	4 (90%-99% herbicidal effect, phytotoxicity)
CC1(c2ccccc2)CCN(Cc2ccccc2NS(=O)(=O)C(F)(F)F)C(=O)O1 (centres unmarked) [Compound 1-160]	4 (90%-99% herbicidal effect, phytotoxicity)	4 (90%-99% herbicidal effect, phytotoxicity)	4 (90%-99% herbicidal effect, phytotoxicity)	4 (90%-99% herbicidal effect, phytotoxicity)
CCOC(=O)N(c1ccccc1CN1CCC(C)(c2ccccc2)OC1=O)S(=O)(=O)C(F)(F)F (centres unmarked) [Compound 1-162]	4 (90%-99% herbicidal effect, phytotoxicity)	4 (90%-99% herbicidal effect, phytotoxicity)	4 (90%-99% herbicidal effect, phytotoxicity)	4 (90%-99% herbicidal effect, phytotoxicity)
CC1(c2ccccc2Cl)CCN(Cc2ccccc2NS(=O)(=O)C(F)(F)F)C(=O)O1 (centres unmarked) [Compound 1-172]	4 (90%-99% herbicidal effect, phytotoxicity)	4 (90%-99% herbicidal effect, phytotoxicity)	4 (90%-99% herbicidal effect, phytotoxicity)	4 (90%-99% herbicidal effect, phytotoxicity)
CCOC(=O)N(c1ccccc1CN1CCC(C)(c2ccccc2Cl)OC1=O)S(=O)(=O)C(F)(F)F (centres unmarked) [Compound 1-174]	4 (90%-99% herbicidal effect, phytotoxicity)	4 (90%-99% herbicidal effect, phytotoxicity)	4 (90%-99% herbicidal effect, phytotoxicity)	4 (90%-99% herbicidal effect, phytotoxicity)
CC(C)COC(=O)N(c1ccccc1CN1CCC(C)(c2ccccc2Cl)OC1=O)S(=O)(=O)C(F)(F)F (centres unmarked) [Compound 1-177]	4 (90%-99% herbicidal effect, phytotoxicity)	4 (90%-99% herbicidal effect, phytotoxicity)	4 (90%-99% herbicidal effect, phytotoxicity)	4 (90%-99% herbicidal effect, phytotoxicity)
O=C1OC(c2ccccc2)(C2CC2)CCN1Cc1ccccc1NS(=O)(=O)C(F)(F)F (centres unmarked) [Compound 1-183]	4 (90%-99% herbicidal effect, phytotoxicity)	4 (90%-99% herbicidal effect, phytotoxicity)	4 (90%-99% herbicidal effect, phytotoxicity)	4 (90%-99% herbicidal effect, phytotoxicity)
O=C1OC(c2ccc(Cl)cc2)(C2CC2)CCN1Cc1ccccc1NS(=O)(=O)C(F)(F)F (centres unmarked) [Compound 1-195]	4 (90%-99% herbicidal effect, phytotoxicity)	4 (90%-99% herbicidal effect, phytotoxicity)	4 (90%-99% herbicidal effect, phytotoxicity)	4 (90%-99% herbicidal effect, phytotoxicity)
CCOC(=O)N(c1ccccc1CN1CCC(c2ccc(Cl)cc2)(C2CC2)OC1=O)S(=O)(=O)C(F)(F)F (centres unmarked) [Compound 1-197]	4 (90%-99% herbicidal effect, phytotoxicity)	4 (90%-99% herbicidal effect, phytotoxicity)	4 (90%-99% herbicidal effect, phytotoxicity)	4 (90%-99% herbicidal effect, phytotoxicity)
O=C1OC(c2ccccc2)(C2CCC2)CCN1Cc1ccccc1NS(=O)(=O)C(F)(F)F (centres unmarked) [Compound 1-206]	4 (90%-99% herbicidal effect, phytotoxicity)	4 (90%-99% herbicidal effect, phytotoxicity)	4 (90%-99% herbicidal effect, phytotoxicity)	4 (90%-99% herbicidal effect, phytotoxicity)
O=C1OC(c2ccccc2)(c2ccccc2)CCN1Cc1ccccc1NS(=O)(=O)C(F)(F)F [Compound 1-217]	4 (90%-99% herbicidal effect, phytotoxicity)	4 (90%-99% herbicidal effect, phytotoxicity)	4 (90%-99% herbicidal effect, phytotoxicity)	4 (90%-99% herbicidal effect, phytotoxicity)
